Measurements: US9090576B2, “2-substituted-p-quinone derivatives for treatment of oxidative stress diseases” (Edison Pharmaceuticals, Inc., priority 2008, dated 2015)

Legend:
Format in all cases: cell-based
[1] = tested on: human dermal fibroblasts from Huntington's patients; assay: Rescue of BSO-stressed fibroblasts from Huntington's patients (screen as Example A); conditions: Fibroblast, BSO-stressed Huntington's fibroblasts (GM 04281), less than about 150 nM, read-out: EC50, protection against Huntington's
Outline: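 Coriell Huntington's line GM 04281 plated at 3,000 cells/well and attached overnight at 37 °C. Survival was read by Calcein AM (1.2 μM, 50-70 min, RT) fluorescence at 485/525 nm, giving EC50.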

[2] = tested on: human dermal fibroblasts from LHON patients; assay: Rescue of BSO-stressed fibroblasts from LHON patients (screen as Example A); conditions: Fibroblast, BSO-stressed LHON fibroblasts (GM03858), less than about 150 nM, read-out: EC50, protection against LHON
Outline: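 LHON patient fibroblasts (Coriell GM03858) at 3,000 cells/well were pre-treated overnight with compounds serially diluted from a 150 μM master solution. Surviving cells were stained with 1.2 μM Calcein AM for 50-70 min at RT and read by fluorescence (485/525 nm), giving EC50.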

[3] = tested on: human dermal fibroblasts from CoQ10 deficient patients; assay: Rescue of BSO-stressed fibroblasts from CoQ10 deficient patients (screen similar to Example A); conditions: Fibroblast, BSO-stressed fibroblasts from CoQ10 deficient patients harboring a CoQ2 mutation, less than about 150 nM, read-out: EC50, protection against CoQ10 deficiency
Protocol: (§1) A culture with FRDA fibroblasts was started from a 1 ml vial with approximately 500,000 cells stored in liquid nitrogen. Cells were propagated in 10 cm cell culture dishes by splitting every third day in a ratio of 1:3 until nine plates were available. Once confluent, fibroblasts were harvested. For 54 micro titer plates (96 well-MTP) a total of 14.3 million cells (passage eight) were re-suspended in 480 ml medium, corresponding to 100 μl medium with 3,000 cells/well. The remaining cells were distributed in 10 cm cell culture plates (500,000 cells/plate) for propagation. The plates were incubated overnight at 37° C. in an atmosphere with 95% humidity and 5% CO2 to allow attachment of the cells to the culture plate.
(§2) MTP medium (243 μl) was added to a well of the microtiter plate. The test compounds were unfrozen, and 7.5 μl of a 5 mM stock solution was dissolved in the well containing 243 μl medium, resulting in a 150 μM master solution. Serial dilutions from the master solution were made. The period between the single dilution steps was kept as short as possible (generally less than 1 second).
(§3) Plates were kept overnight in the cell culture incubator. The next day, 10 μl of a 10 mM BSO solution were added to the wells, resulting in a 1 mM final BSO concentration. Forty-eight hours later, three plates were examined under a phase-contrast microscope to verify that the cells in the 0% control (wells E1-H1) were clearly dead. The medium from all plates was discarded, and the remaining liquid was removed by gently tapping the plate inversed onto a paper towel.
(§4) 100 μl of PBS containing 1.2 μM Calcein AM were then added to each well. The plates were incubated for 50-70 minutes at room temperature. After that time the PBS was discarded, the plate gently tapped on a paper towel and fluorescence (excitation/emission wavelengths of 485 nm and 525 nm, respectively) was read on a Gemini fluorescence reader. Data was imported into Microsoft Excel (EXCEL is a registered trademark of Microsoft Corporation for a spreadsheet program) and used to calculate the EC50 concentration for each compound.
Compounds of the invention were tested using a screen similar to the one described in Example A, but substituting FRDA cells with cells obtained from CoQ10 deficient patients harboring a CoQ2 mutation. The compounds were tested for their ability to rescue human dermal fibroblasts from CoQ10 deficient patients from oxidative stress.

[4] = tested on: Human dermal fibroblasts from Friedreich's Ataxia patients; assay: Rescue of BSO-stressed FRDA fibroblasts (Calcein AM viability); conditions: BSO-stressed FRDA fibroblasts (GM04078), less than about 150 nM, read-out: EC50, protection against FRDA
Outline: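 Patient FRDA fibroblasts (GM04078) seeded at 3,000 cells/well, given serially diluted compound from a 150 μM master solution, then stressed next day with 1 mM BSO.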

[5] = tested on: human dermal fibroblasts from Parkinson's Disease patients; assay: Rescue of BSO-stressed fibroblasts from Parkinson's Disease patients (screen as Example A); conditions: Fibroblast, BSO-stressed Parkinson's Disease fibroblasts (AG20439), less than about 150 nM, read-out: EC50, protection against PD
Protocol: as §1, §2, §3, §4
Compounds of the invention were screened as described in Example A, but substituting FRDA cells with Parkinson's Disease (PD) cells obtained from the Coriell Cell Repositories (Camden, N.J.; repository number AG20439). The compounds were tested for their ability to rescue human dermal fibroblasts from Parkinson's Disease patients from oxidative stress.

Measured: EC50

CC1=C(C)C(=O)C(CCNC(=O)NCc2ccc(C(F)(F)F)cc2)=C(C)C1=O [1-(4-(trifluoromethyl)benzyl)-3-(2-(2,4,5-trimethyl-3,6-dioxocyclohexa-1,4-dienyl)ethyl)urea]
< 150 nM: [1] | [2] | [3] | [4]

CC1=C(C)C(=O)C(CCNC(=O)N(C)Cc2ccc(Cl)cc2)=C(C)C1=O [1-(4-chlorobenzyl)-1-methyl-3-(2-(2,4,5-trimethyl-3,6-dioxocyclohexa-1,4-dienyl)ethyl)urea]
< 150 nM: [1] | [2] | [3]

COc1ccc(C2(C(=O)NCCC3=C(C)C(=O)C(C)=C(C)C3=O)CC2)cc1 [1-(4-methoxyphenyl)-N-(2-(2,4,5-trimethyl-3,6-dioxocyclohexa-1,4-dienyl)ethyl)cyclopropanecarboxamide]
< 150 nM: [3] | [4]

CC1=C(C)C(=O)C(CCNC(=O)C2(c3ccccc3)CC2)=C(C)C1=O [1-phenyl-N-(2-(2,4,5-trimethyl-3,6-dioxocyclohexa-1,4-dienyl)ethyl)cyclopropanecarboxamide]
< 150 nM: [2] | [3] | [4]

COc1ccccc1CC(=O)NCCC1=C(C)C(=O)C(C)=C(C)C1=O [2-(2-methoxyphenyl)-N-(2-(2,4,5-trimethyl-3,6-dioxocyclohexa-1,4-dienyl)ethyl)acetamide]
< 150 nM: [3] | [4]

CC1=C(C)C(=O)C(CCCC(=O)N2CCCc3ccccc32)=C(C)C1=O [2-(4-(3,4-dihydroquinolin-1 (2H)-yl)-4-oxobutyl)-3,5,6-trimethylcyclohexa-2,5-diene-1,4-dione]
< 150 nM: [1] | [2] | [3] | [4]

CC1=C(C)C(=O)C(CCNC(=O)C(C)c2ccc(Cl)cc2)=C(C)C1=O (stereo not shown) [2-(4-chlorophenyl)-N-(2-(2,4,5-trimethyl-3,6-dioxocyclohexa-1,4-dienyl)ethyl)propanamide]
< 150 nM: [1] | [3] | [4]

CC1=C(C)C(=O)C(CCNC(=O)C(C)c2ccc(F)cc2)=C(C)C1=O (stereo not shown) [2-(4-fluorophenyl)-N-(2-(2,4,5-trimethyl-3,6-dioxocyclohexa-1,4-dienyl)ethyl)propanamide]
< 150 nM: [3] | [4]

COc1ccc(CC(=O)NCCC2=C(C)C(=O)C(C)=C(C)C2=O)cc1 [2-(4-methoxyphenyl)-N-(2-(2,4,5-trimethyl-3,6-dioxocyclohexa-1,4-dienyl)ethyl)acetamide]
< 150 nM: [1] | [2] | [3] | [4]

CC1=C(C)C(=O)C(CCNC(=O)Cc2cccc3ccccc23)=C(C)C1=O [2-(naphthalen-1-yl)-N-(2-(2,4,5-trimethyl-3,6-dioxocyclohexa-1,4-dienyl)ethyl)acetamide]
< 150 nM: [3] | [4]

CC1=C(C)C(=O)C(CCNC(=O)C(O)c2ccc(C(F)(F)F)cc2)=C(C)C1=O (stereo not shown) [2-hydroxy-2-(4-(trifluoromethyl)phenyl)-N-(2-(2,4,5-trimethyl-3,6-dioxocyclohexa-1,4-dienyl)ethyl)acetamide]
< 150 nM: [1] | [2] | [3] | [4]

CC1=C(C)C(=O)C(CCNC(=O)CCc2ccc(F)cc2)=C(C)C1=O [3-(4-fluorophenyl)-N-(2-(2,4,5-trimethyl-3,6-dioxocyclohexa-1,4-dienyl)ethyl)propanamide]
< 150 nM: [3] | [4]

CC1=C(C)C(=O)C(CCNC(=O)c2ccc(C#N)cc2)=C(C)C1=O [4-cyano-N-(2-(2,4,5-trimethyl-3,6-dioxocyclohexa-1,4-dienyl)ethyl)benzamide]
< 150 nM: [2] | [3] | [4]

CC1=C(C)C(=O)C(CCCC(=O)Nc2cc(Cl)ccc2Cl)=C(C)C1=O [N-(2,5-dichlorophenyl)-4-(2,4,5-trimethyl-3,6-dioxocyclohexa-1,4-dienyl)butanamide]
< 150 nM: [1] | [2] | [5] | [4]

CC1=C(C)C(=O)C(CCCC(=O)Nc2cc(F)ccc2F)=C(C)C1=O [N-(2,5-difluorophenyl)-4-(2,4,5-trimethyl-3,6-dioxocyclohexa-1,4-dienyl)butanamide]
< 150 nM: [1] | [2] | [5] | [4]

CC1=C(C)C(=O)C(CCCC(=O)Nc2c(Cl)cccc2Cl)=C(C)C1=O [N-(2,6-dichlorophenyl)-4-(2,4,5-trimethyl-3,6-dioxocyclohexa-1,4-dienyl)butanamide]
< 150 nM: [1] | [2] | [5] | [4]

CC1=C(C)C(=O)C(CCCC(=O)Nc2c(F)cccc2F)=C(C)C1=O [N-(2,6-difluorophenyl)-4-(2,4,5-trimethyl-3,6-dioxocyclohexa-1,4-dienyl)butanamide]
< 150 nM: [1] | [2] | [5] | [4]

CC1=C(C)C(=O)C(CCCC(=O)Nc2ccc(Cl)c(Cl)c2)=C(C)C1=O [N-(3,4-dichlorophenyl)-4-(2,4,5-trimethyl-3,6-dioxocyclohexa-1,4-dienyl)butanamide]
< 150 nM: [1] | [2] | [5] | [4]

CC1=C(C)C(=O)C(CCCC(=O)Nc2ccc(F)c(F)c2)=C(C)C1=O [N-(3,4-difluorophenyl)-4-(2,4,5-trimethyl-3,6-dioxocyclohexa-1,4-dienyl)butanamide]
< 150 nM: [1] | [2] | [5] | [4]

CC1=C(C)C(=O)C(CCCC(=O)Nc2cc(F)cc(F)c2)=C(C)C1=O [N-(3,5-difluorophenyl)-4-(2,4,5-trimethyl-3,6-dioxocyclohexa-1,4-dienyl)butanamide]
< 150 nM: [1] | [2] | [5] | [4]

COc1ccc(NC(=O)CCCC2=C(C)C(=O)C(C)=C(C)C2=O)cc1 [N-(4-methoxyphenyl)-4-(2,4,5-trimethyl-3,6-dioxocyclohexa-1,4-dienyl)butanamide]
< 150 nM: [1] | [2] | [5] | [4]

CC1=C(C)C(=O)C(CCCC(=O)Nc2ccccn2)=C(C)C1=O [N-(pyridin-2-yl)-4-(2,4,5-trimethyl-3,6-dioxocyclohexa-1,4-dienyl)butanamide]
< 150 nM: [1] | [2] | [5] | [4]

CC1=C(C)C(=O)C(CCCC(=O)Nc2ccncc2)=C(C)C1=O [N-(pyridin-4-yl)-4-(2,4,5-trimethyl-3,6-dioxocyclohexa-1,4-dienyl)butanamide]
< 150 nM: [1] | [2] | [5] | [4]

CC1=C(C)C(=O)C(CCC(C)C(=O)NCc2ccccc2)=C(C)C1=O (stereo not shown) [N-benzyl-2-methyl-4-(2,4,5-trimethyl-3,6-dioxocyclohexa-1,4-dienyl)butanamide]
< 150 nM: [1] | [2] | [5] | [4]

CC1=C(C)C(=O)C(CCCC(=O)NCCc2ccccc2)=C(C)C1=O [N-phenethyl-4-(2,4,5-trimethyl-3,6-dioxocyclohexa-1,4-dienyl)butanamide]
< 150 nM: [1] | [2] | [3]
